ChEMBL document CHEMBL1201862, “PubChem BioAssay data set” (2004)
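All cell lines were grown in 96-well plates and treated with compound for 48 hours. Here, GI50 denotes the concentration required for 50% inhibition of growth.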 Active and inactive are the calls of the source. No stated cut-off is given here; in the data, active = GI50 up to about 1.1 µM and inactive = higher.

Columns and labels:
Assay in all cases: inhibition of tumour cell growth, NCI panel, 48 h
[1] = test system: ACHN
[2] = test system: COLO 205
[3] = test system: HL-60
[4] = test system: HOP-92
[5] = test system: IGROV-1
[6] = test system: LOX IMVI
[7] = test system: M14
[8] = test system: NCI-H226
[9] = test system: NCI-H23
[10] = test system: OVCAR-4
[11] = test system: SF-295
[12] = test system: SK-MEL-28
[13] = test system: SK-MEL-5
[14] = test system: SNB-75
[15] = test system: U-251
[16] = test system: UACC-62
[17] = test system: UO-31
[18] = test system: HOP-62

Measured: GI50

[O-][S+]1Cc2ccccc2CS1 (stereo not given)
inactive: [1] 18.8 µM | [2] 15.4 µM | [3] 15.1 µM | [4] 14 µM | [5] 68.2 µM | [6] 7.46 µM | [7] 15 µM | [8] 87.1 µM | [9] 14.1 µM | [10] 16 µM | [11] 31.6 µM | [12] 14.9 µM | [13] 43.2 µM | [14] 20.3 µM | [15] 10.7 µM | [16] 13.2 µM | [17] 21.4 µM

CC(=O)C1=C(C)NC2C=CC=CN12 (stereo not given)
inactive: [1] > 100 µM | [2] > 100 µM | [3] > 100 µM | [18] > 100 µM | [4] > 100 µM | [5] > 100 µM | [6] > 100 µM | [7] > 100 µM | [8] > 100 µM | [9] > 100 µM | [10] > 100 µM | [11] > 100 µM | [12] > 100 µM | [13] > 100 µM | [14] > 100 µM | [15] > 100 µM | [16] > 100 µM | [17] > 100 µM

COc1cc2c(cc1OC)C(C(CBr)CBr)N(C1CCCC1)CC2 (stereo not given)
inactive: [1] > 100 µM | [2] > 100 µM | [3] > 100 µM | [18] > 100 µM | [4] 41.3 µM | [5] > 100 µM | [6] > 100 µM | [7] > 100 µM | [8] 82.6 µM | [9] > 100 µM | [10] > 100 µM | [11] > 100 µM | [12] > 100 µM | [13] > 100 µM | [14] > 100 µM | [15] > 100 µM | [16] > 100 µM | [17] > 100 µM

CCOC(=O)/C(I)=C/c1cc(OC)c(OC)c(OC)c1
inactive: [1] 7.14 µM | [2] 6.12 µM | [3] 3.67 µM | [18] 26.9 µM | [4] 11.6 µM | [5] 22.2 µM | [6] 1.75 µM | [7] 3.87 µM | [8] 4.69 µM | [9] 3.08 µM | [10] 14.7 µM | [11] 9.91 µM | [12] 1.41 µM | [13] 7.83 µM | [14] 28.8 µM | [15] 6.11 µM | [16] 4.5 µM | [17] 5.79 µM

CC(=O)Nc1ccc(S(=O)(=O)Nc2cnc3ccccc3n2)cc1
inactive: [1] > 100 µM | [2] > 100 µM | [3] > 100 µM | [18] > 100 µM | [4] > 100 µM | [5] > 100 µM | [6] > 100 µM | [7] > 100 µM | [8] > 100 µM | [9] > 100 µM | [10] > 100 µM | [11] > 100 µM | [12] > 100 µM | [13] > 100 µM | [14] 63.5 µM | [15] > 100 µM | [16] > 100 µM | [17] > 100 µM

CCCCCC(/C=C/[C@@H]1[C@H]2CC(=O)O[C@H]2C[C@H]1N1CCOCC1)OC1CCCO1 (stereo not given in full)
inactive: [1] > 100 µM | [2] > 100 µM | [3] > 100 µM | [18] > 100 µM | [4] > 100 µM | [5] > 100 µM | [6] > 100 µM | [7] > 100 µM | [8] > 100 µM | [9] > 100 µM | [10] > 100 µM | [11] > 100 µM | [12] > 100 µM | [13] > 100 µM | [14] > 100 µM | [15] > 100 µM | [16] > 100 µM | [17] > 100 µM

O=C(C#Cc1cnc(O)nc1O)c1ccccc1
inactive: [1] 14.5 µM | [2] 7.23 µM | [3] 3.3 µM | [18] 18.5 µM | [4] 13.2 µM | [5] 17.9 µM | [6] 4.42 µM | [7] 5.2 µM | [8] 24.8 µM | [9] 13.7 µM | [10] 14.1 µM | [11] 35.9 µM | [12] 10.9 µM | [13] 12.7 µM | [14] 18.2 µM | [15] 13.9 µM | [16] 7.28 µM | [17] 17.4 µM
